Here are results for 7 molecules from ChEMBL document CHEMBL2177093, “The design and identification of brain penetrant inhibitors of phosphoinositide 3-kinase α” (J Med Chem, 2012).

Each structure is given as a SMILES string. The source made the active and inactive calls. The rule behind the calls is not given here.

Data set [1] in a line: Protein binding in CD-1 mouse plasma at 25 mg/kg, po administered as single dose. In kind it is ADME, organism-based. Also noted: dose 25 mg/kg, route oral. As to conditions: read-out: PPB (converted).
The nature of data set [2]: Protein binding in CD-1 mouse brain at 25 mg/kg, po administered as single dose. Type of data set: ADME, organism-based. On the set-up: dose 25 mg/kg, route oral. Particulars: read-out: PB (converted).
Data set [3] deals with Serine/threonine-protein kinase mTOR (Homo sapiens, UniProt P42345). As to the kind of experiment: Inhibition of human recombinant mTOR (1360 to 2549 amino acids) assessed as reduction in phosphorylation of (GFP)-4-EBP1 after 30 mins by FRET assay. As to conditions: read-out: Ki(app).
Data set [4] is described as follows: Clearance in po dosed CD-1 mouse. Type of data set: ADME, organism-based. As to conditions: in vivo.
A short description of data set [5]: Half life in po dosed CD-1 mouse. As to conditions: in vivo. In kind it is ADME, organism-based.
The nature of data set [6]: Oral bioavailability in CD-1 mouse. Type of data set: ADME, organism-based. Particulars: in vivo.
Data set [7] in a line: Plasma protein binding in CD-1 mouse. In kind it is ADME, cell-free. As to conditions: read-out: PPB (converted).
A short description of data set [8]: Ratio of drug level in brain to plasma in CD-1 mouse at 15 mg/kg, po at 1 hr. In kind it is ADME, organism-based. Also noted: dose 15 mg/kg, route oral. As to conditions: read-out: BPR.
Data set [9] in a line: Ratio of drug level in brain to plasma in CD-1 mouse at 15 mg/kg, po at 6 hrs. In kind it is ADME, organism-based. Also noted: dose 15 mg/kg, route oral. Particulars: read-out: BPR.
The test system of the next data set is mouse Bcrp1. As to the kind of experiment: in vitro. Particulars: dog.
The target of data set [10] is Phosphatidylinositol 4,5-bisphosphate 3-kinase catalytic subunit alpha isoform (Homo sapiens, UniProt P42336). As to the kind of experiment: Inhibition of PI3Kalpha assessed as reduction in PIP3 formation after 30 mins by fluorescence polarization assay.
Chain of Phosphatidylinositol 4,5-bisphosphate 3-kinase catalytic subunit alpha isoform (P42336 whole entry, canonical isoform): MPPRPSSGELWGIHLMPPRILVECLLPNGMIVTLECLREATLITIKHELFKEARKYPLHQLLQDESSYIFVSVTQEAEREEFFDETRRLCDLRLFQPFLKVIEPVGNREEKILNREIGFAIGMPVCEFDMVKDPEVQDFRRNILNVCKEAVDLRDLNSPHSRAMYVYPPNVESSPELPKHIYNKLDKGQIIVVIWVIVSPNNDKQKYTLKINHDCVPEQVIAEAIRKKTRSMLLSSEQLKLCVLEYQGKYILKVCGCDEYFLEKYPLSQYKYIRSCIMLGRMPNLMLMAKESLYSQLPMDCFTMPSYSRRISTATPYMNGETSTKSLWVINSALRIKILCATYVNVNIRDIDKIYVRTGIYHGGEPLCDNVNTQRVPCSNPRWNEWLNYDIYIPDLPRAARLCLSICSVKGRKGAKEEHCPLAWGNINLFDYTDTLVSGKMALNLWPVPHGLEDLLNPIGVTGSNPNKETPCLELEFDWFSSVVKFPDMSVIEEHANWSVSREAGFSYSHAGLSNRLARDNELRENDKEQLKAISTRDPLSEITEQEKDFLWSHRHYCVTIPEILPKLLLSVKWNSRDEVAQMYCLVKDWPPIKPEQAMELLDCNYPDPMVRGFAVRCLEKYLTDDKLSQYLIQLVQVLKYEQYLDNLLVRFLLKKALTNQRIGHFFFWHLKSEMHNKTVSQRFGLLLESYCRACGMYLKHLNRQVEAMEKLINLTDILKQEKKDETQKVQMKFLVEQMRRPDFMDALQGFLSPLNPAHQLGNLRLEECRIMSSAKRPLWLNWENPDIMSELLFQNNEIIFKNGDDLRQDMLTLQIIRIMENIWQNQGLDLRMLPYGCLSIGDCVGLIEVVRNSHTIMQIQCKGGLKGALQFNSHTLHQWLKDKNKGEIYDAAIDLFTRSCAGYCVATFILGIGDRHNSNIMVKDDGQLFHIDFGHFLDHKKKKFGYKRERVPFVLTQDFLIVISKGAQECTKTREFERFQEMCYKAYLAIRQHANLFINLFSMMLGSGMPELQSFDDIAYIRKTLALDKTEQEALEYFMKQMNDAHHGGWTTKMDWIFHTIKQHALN
For a further data set, the system named is PC-3. As to the kind of experiment: Antiproliferative activity against human PC3 cells incubated for 3 days. In kind it is functional, cell-based. Particulars: PC-3, 72 h.
Data set [11] in a line: Clearance in rat. Type of data set: ADME, organism-based. Particulars: in vivo.
Another data set is described as follows: in vitro. As to conditions: human, liver microsomes.
A short description of data set [12]: Drug uptake in NCr nude mouse brain xenografted with PTEN deficient human U87MG cells at 40 mg/kg after 1 hr. Type of data set: ADME, organism-based, U-87MG ATCC. Also noted: dose 40 mg/kg. Particulars: read-out: Drug uptake.
The nature of data set [13]: Drug uptake in healthy mouse brain at 50 mg/kg after 1 hr. On the set-up: dose 50 mg/kg. In kind it is ADME, organism-based. As to conditions: read-out: Drug uptake.
Data set [14] deals with Phosphatidylinositol 4-phosphate 3-kinase C2 domain-containing subunit beta (Homo sapiens) (UniProt O00750). As to the kind of experiment: Inhibition of PI3KC2beta at 1 uM.
Chain of Phosphatidylinositol 4-phosphate 3-kinase C2 domain-containing subunit beta (Homo sapiens) (O00750 whole entry, the tested form may be a part): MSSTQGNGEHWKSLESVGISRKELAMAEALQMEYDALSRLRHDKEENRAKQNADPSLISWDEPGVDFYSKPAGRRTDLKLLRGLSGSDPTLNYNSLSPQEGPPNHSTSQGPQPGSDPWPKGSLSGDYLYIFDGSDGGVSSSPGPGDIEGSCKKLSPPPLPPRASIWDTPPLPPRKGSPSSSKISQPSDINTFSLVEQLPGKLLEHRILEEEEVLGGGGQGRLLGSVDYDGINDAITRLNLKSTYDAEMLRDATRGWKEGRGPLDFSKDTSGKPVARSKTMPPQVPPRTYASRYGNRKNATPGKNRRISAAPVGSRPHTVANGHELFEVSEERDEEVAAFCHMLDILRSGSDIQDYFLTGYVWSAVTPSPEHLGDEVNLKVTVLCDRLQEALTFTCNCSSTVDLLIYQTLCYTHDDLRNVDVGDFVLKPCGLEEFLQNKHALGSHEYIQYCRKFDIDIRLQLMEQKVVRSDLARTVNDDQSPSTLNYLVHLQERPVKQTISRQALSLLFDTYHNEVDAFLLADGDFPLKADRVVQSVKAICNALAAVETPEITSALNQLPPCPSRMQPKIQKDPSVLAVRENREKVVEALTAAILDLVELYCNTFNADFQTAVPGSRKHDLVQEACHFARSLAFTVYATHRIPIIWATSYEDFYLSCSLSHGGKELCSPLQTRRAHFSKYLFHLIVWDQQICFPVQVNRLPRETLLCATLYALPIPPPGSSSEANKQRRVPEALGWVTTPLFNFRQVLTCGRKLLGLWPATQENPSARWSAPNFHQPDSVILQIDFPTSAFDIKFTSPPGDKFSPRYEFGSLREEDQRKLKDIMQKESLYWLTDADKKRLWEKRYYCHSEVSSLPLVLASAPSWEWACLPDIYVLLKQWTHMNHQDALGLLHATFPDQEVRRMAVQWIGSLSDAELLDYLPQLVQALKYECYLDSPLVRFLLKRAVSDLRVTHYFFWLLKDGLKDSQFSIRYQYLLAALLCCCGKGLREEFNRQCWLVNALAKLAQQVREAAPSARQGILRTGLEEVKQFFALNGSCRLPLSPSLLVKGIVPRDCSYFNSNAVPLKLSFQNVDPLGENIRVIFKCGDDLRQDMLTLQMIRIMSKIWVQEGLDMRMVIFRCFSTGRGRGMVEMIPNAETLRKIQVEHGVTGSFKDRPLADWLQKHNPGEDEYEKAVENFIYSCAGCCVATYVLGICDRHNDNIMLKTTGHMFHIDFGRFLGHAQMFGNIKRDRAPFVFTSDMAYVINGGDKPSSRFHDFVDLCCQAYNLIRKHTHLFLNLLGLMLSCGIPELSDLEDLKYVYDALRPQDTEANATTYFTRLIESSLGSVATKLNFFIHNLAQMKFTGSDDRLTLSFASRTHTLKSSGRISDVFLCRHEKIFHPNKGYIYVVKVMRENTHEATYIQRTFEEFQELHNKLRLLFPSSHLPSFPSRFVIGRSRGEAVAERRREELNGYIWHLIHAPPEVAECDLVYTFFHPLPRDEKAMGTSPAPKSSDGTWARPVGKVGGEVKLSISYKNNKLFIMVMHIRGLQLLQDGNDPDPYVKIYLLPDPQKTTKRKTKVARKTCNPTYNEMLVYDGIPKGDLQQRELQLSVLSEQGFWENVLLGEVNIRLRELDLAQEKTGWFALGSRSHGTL
The test system of another data set is U-87MG ATCC. As to the kind of experiment: Antitumor activity against PTEN deficient human U87MG cells xenografted in NCr nude mouse assessed as inhibition of tumor growth at 3 to 14 mg/kg, po qd for 24 days. Type of data set: functional, organism-based.
A short description of data set [15]: Drug level in CD-1 mouse brain at 50 mg/kg, po administered as single dose measured after 6 hrs post dose. In kind it is ADME, organism-based. On the set-up: dose 50 mg/kg, route oral. As to conditions: read-out: Drug uptake.
Data set [16] can be described thus: Drug level in CD-1 mouse brain at 50 mg/kg, po administered as single dose measured after 1 hr post dose. In kind it is ADME, organism-based. On the set-up: dose 50 mg/kg, route oral. As to conditions: read-out: Drug uptake.
The nature of data set [17]: Ratio of drug level in brain to plasma in CD-1 mouse at 50 mg/kg, po at 1 hr. In kind it is ADME, organism-based. On the set-up: dose 50 mg/kg, route oral. Particulars: read-out: BPR.
The nature of data set [18]: Ratio of drug level in brain to plasma in CD-1 mouse at 50 mg/kg, po at 6 hrs. Type of data set: ADME, organism-based. On the set-up: dose 50 mg/kg, route oral. As to conditions: read-out: BPR.
Data set [19] in a line: Cytotoxicity against human A172 cells incubated for 4 days. Particulars: A 172, 96 h. In kind it is functional, cell-based.
A short description of data set [20]: Cytotoxicity against human Hs683 cells incubated for 4 days. In kind it is functional, cell-based. Particulars: Hs 683, 96 h.
A short description of data set [21]: Cytotoxicity against human LN229 cells incubated for 4 days. In kind it is functional, cell-based. Particulars: LN-229, 96 h.
In the next data set the test system is M059J. As to the kind of experiment: Cytotoxicity against human M059J cells incubated for 4 days. Particulars: 96 h. Type of data set: functional, cell-based.
The subject of a further data set is SF-539. As to the kind of experiment: Cytotoxicity against human SF539 cells incubated for 4 days. In kind it is functional, cell-based. Particulars: SF-539, 96 h.
The nature of data set [22]: Cytotoxicity against human U87MG cells incubated for 4 days. Type of data set: functional, cell-based, U-87MG ATCC. As to conditions: U-87 MG, 96 h.
A further data set relates to SF-268. As to the kind of experiment: Cytotoxicity against human SF268 cells incubated for 4 days. As to conditions: SF-268, 96 h. Type of data set: functional, cell-based.
The subject of data set [23] is Mus musculus. As to the kind of experiment: Inhibition of PI3K signaling in CD-1 mouse assessed as reduction in pAKT level at 50 mg/kg, po administered as single dose measured after 1 hr post dose by immunoblotting method. Type of data set: functional. As to conditions: CD-1, 1 h.
For data set [24], the system named is Mus musculus. As to the kind of experiment: Inhibition of PI3K signaling in CD-1 mouse assessed as reduction in pAKT level at 50 mg/kg, po administered as single dose measured after 6 hrs post dose by immunoblotting method. Type of data set: functional. Particulars: CD-1, 6 h.
A short description of data set [25]: Toxicity in PTEN deficient human U87MG cells xenografted in NCr nude mouse at dosed orally once daily for 24 days. In kind it is organism-based, U-87MG ATCC. Particulars: in vivo, po.
The subject of data set [26] is Mus musculus. As to the kind of experiment: Toxicity in PTEN deficient human U87MG cells xenografted in NCr nude mouse assessed as loss in body weight at 30 mg/kg, po qd for 24 days. On the set-up: dose 30 mg/kg, route oral. Type of data set: organism-based, U-87MG ATCC. As to conditions: in vivo, 576 h.
Data set [27] in a line: Antitumor activity in PTEN deficient human U87MG cells xenografted in NCr nude mouse assessed as loss in body weight at 40 mg/kg, po after 24 days. In kind it is functional, U-87MG ATCC.
The test system of data set [28] is Mus musculus. As to the kind of experiment: Toxicity in PTEN deficient human U87MG cells xenografted in NCr nude mouse assessed as loss in body weight at 50 mg/kg, po qd for 24 days. In kind it is organism-based, U-87MG ATCC. Also noted: dose 50 mg/kg, route oral. Particulars: in vivo, 576 h.
The species entered for data set [29] is Mus musculus. Particulars: NCr, U-87MG ATCC, 10 mg/kg.
The species entered for data set [30] is Mus musculus. Particulars: NCr, U-87MG ATCC, 40 mg/kg.
Data set [31] is filed under the species Mus musculus. Particulars: NCr, U-87MG ATCC, 3 mg/kg.
The species named for data set [32] is Mus musculus. As to conditions: NCr, U-87MG ATCC, 10 mg/kg. The source holds these as a separate data set.
The species named for data set [33] is Mus musculus. Particulars: NCr, U-87MG ATCC, 40 mg/kg. The source holds these as a separate data set.
The species entered for data set [34] is Mus musculus. As to conditions: NCr, U-87MG ATCC, 3 mg/kg. The source holds these as a separate data set.
A short description of data set [35]: Ratio of drug level in brain to plasma in CD-1 mouse at 25 mg/kg, po at 1 hr. Type of data set: ADME, organism-based. On the set-up: dose 25 mg/kg, route oral. As to conditions: read-out: BPR.
The nature of data set [36]: Ratio of drug level in brain to plasma in CD-1 mouse at 25 mg/kg, po at 6 hrs. Particulars: read-out: BPR. Also noted: dose 25 mg/kg, route oral. In kind it is ADME, organism-based.

As for `CC1(C)OCCc2c1sc1c(N3CCOCC3)nc(-c3cnc(N)nc3)nc21`, the fraction unbound in data set [1] is 0.006; in data set [2] it was 0.003; in data set [7], 0.006. The Ki in data set [3] worked out at 13 nM. In data set [4], this molecule had a CL/F of 16 mL/min/kg. Further, in data set [5], the half-life is 2.9 h. The same molecule gave a bioavailability in data set [6] of 93%. For the same molecule, the Kp at 1 h in data set [8] turned out to be 1.4. The Kp at 6 h in [9] came to 1.6. Besides, the efflux ratio at 2 h, 5 µM with mouse Bcrp1 worked out at 2.3.
Take `Cc1c(C(C)(C)O)sc2c(N3CCOCC3)nc(-c3cnc(N)nc3)nc12`: the efflux ratio at 2 h, 5 µM in the data set on mouse Bcrp1 turned out to be 5.4.
For the molecule `Cc1csc2c(N3CCOCC3)nc(-c3cnc(N)nc3)nc12`, the IC50 in [10] stood at 9 nM. Moreover, the response in the data set on PC-3 was half-maximal at 364 nM (EC50). The clearance in data set [11] turned out to be 238 mL/min/kg. Besides, the CLhep predicted in the data set “in vitro” was 11 mL/min/kg. For the same molecule, the efflux ratio at 2 h, 5 µM in the data set with mouse Bcrp1 stood at 1.
`COCCOC1(c2cc3nc(-c4cnc(N)nc4)nc(N4CCOCC4)c3s2)COC1`: the efflux ratio at 2 h, 5 µM in the data set on mouse Bcrp1 came to 1.4.
For `COC1(c2sc3c(N4CCOCC4)nc(-c4cnc(N)nc4)nc3c2C)COC1`, the concentration at 1 h in data set [12] is 2200 nM; in data set [13], 3600 nM; in data set [16], 3640 nM. Besides, the inhibition in data set [14] worked out at 77%. Further, the TGI entry in the data set on U-87MG ATCC was “Dose-dependent effect”. Further, the concentration at 6 h in data set [15] came out at 2310 nM. This molecule had a CL/F in data set [4] of 32 mL/min/kg. The molecule further showed a half-life in data set [5] of 17 h. In [6], this molecule registered a bioavailability of 75%. In addition, the fraction unbound in data set [7] is 0.15. In addition, the Kp at 1 h in data set [17] was 1. Further, the Kp at 6 h in [18] was 1. Moreover, the concentration for a half-maximal effect (EC50) in data set [19] was found to be 240 nM; in data set [20], 230 nM; in [21] it was 140 nM; in the data set with M059J, 330 nM; with SF-539, 250 nM; in data set [22], 250 nM. This molecule had an EC50 in the data set on SF-268 of 570 nM. The inhibition in vivo at 50 mg/kg in the data set on Mus musculus [23] amounted to 62%; with Mus musculus [24], 31%. In data set [25], the MTD at 576 h was found to be 40 mg/kg. Further, the Activity result with Mus musculus [26] is “Non-toxic”; in data set [27], <15%; with Mus musculus [28], > 15%. The inhibition result in the data set filed under Mus musculus [29], in the data set listed under Mus musculus [30], in the data set listed under Mus musculus [31], in the data set filed under Mus musculus [32], in the data set filed under Mus musculus [33] and in the data set listed under Mus musculus [34] was “Active” throughout.
Regarding `CC1(C)COC1c1cc2nc(-c3cnc(N)nc3)nc(N3CCOCC3)c2s1` (configuration not stated), the Ki in [3] was determined as 21 nM. The apparent clearance (CL/F) in [4] is 52 mL/min/kg. The same molecule had a half-life in data set [5] of 3.3 h. The molecule also showed a bioavailability in data set [6] of 46%. Also, in [7], the fraction unbound was 0.087. The Kp at 1 h in data set [35] was 0.9. Also, the Kp at 6 h in [36] is 1.2. Besides, the efflux ratio at 2 h, 5 µM with mouse Bcrp1 came to 1.2.
With `CC(F)(F)c1cc2nc(-c3cnc(N)nc3)nc(N3CCOCC3)c2s1`, the efflux ratio at 2 h, 5 µM in the data set with mouse Bcrp1 is 1.7.
